In data set [1] the test system is stroma-dependent myeloma cells (primary MM, MOLP5). Kind of data set: Viability of stroma-dependent myeloma cells co-cultured with bone marrow stromal cells (imaging, 3 days). It counts as cell-based. The note with it: primary MM and MOLP5, FIG. 1B-1C. From the text:
(§1) BRD9647 was identified in a phenotypic screening of multiple myeloma cells as a growth inhibitor of certain stroma-dependent myeloma cells. […] FIG. 1B is a plot showing viability of multiple myeloma cell lines (primary multiple myeloma (primary MM) cells (with stroma), MOLP5 (with stroma), and MM1S (with stroma)) treated with various concentrations of BRD9647. For these experiments GFP-labeled MOLP5 and MM1S cells were co-cultured with unlabeled primary human bone marrow stromal cells in 384-well plates and exposed to increasing concentrations of BRD9647 for 3 days. At the end of this period, wells were imaged in the GFP channel with the IXMicro automated high-throughput microscope (Molecular Devices), remaining GFP positive cells were quantified using the MetaXpress software (Molecular Devices) and expressed as percentages of DMSO (vehicle) controls. Unlabeled primary MM cells were similar treated with BRD9647 but were stained with the calcein-acetoxymethyl ester dye at the end of the treatment period. The dye fluoresces green inside viable cells that contain esterase enzymes. Viable cells were imaged and quantified similar to GFP-positive myeloma cell-lines using size, shape and staining intensity to distinguish primary MM from stromal cells. […] Viable cells in these experiments after 3 days of compound exposure were measured using the Cell Titer Glo reagent (Promega).

Data set [2] deals with ~100 cell lines from the Broad Institute CTD2 Center. Kind of data set: Viability of ~100 Broad CTD2 cell lines (Cell Titer Glo, 3 days). It counts as cell-based. The note with it: 3 days compound exposure, FIG. 1D.
Source text: as §1
Background: In ATP-based viability assays light output follows the ATP content of the culture.

The test system of data set [3] is MOLP5 cells expressing AZIN1-WT. Nature of the data set: Viability of MOLP5 cells expressing wild-type AZIN1 under BRD9647. It counts as cell-based. The note with it: FIG. 4D, 5A; lentiviral AZIN1-WT. An excerpt:
MOLP5 cells sensitive to BRD9647 contained a mutation in AZIN1 (FIG. 4B). The mutation in AZIN1 was S367G. MOLP5 cells raised to be resistant to BRD9647 through serial exposures to increasing concentrations of BRD9647 over 3 months (MOLP5-R) lost the AZIN1 mutation that conferred sensitivity to BRD9647 (FIG. 4C). For experiments in FIGS. 4B and 4C, RNA was isolated from MOLP5 or MOLP5-R cells and converted into complementary DNA (cDNA). The AZIN1 polynucleotide was PCR amplified from cDNA then subject to Sanger sequencing. […] The growth of MOLP5 AZIN1-WT expressing cells in the presence of BRD9647 resembles the growth of untreated MOLP5 cells. For these experiments, lentiviral vectors (pLX_TRC304) encoding the AZIN1 open reading frame with the wild-type sequence or S367G mutant sequence and the puromycin resistance gene were transduced into MOLP5 cells which were then subjected to puromycin selection. […] A schematic of AZIN1 S367G's role in polyamine synthesis is shown at FIG. 6.

Data set [4] deals with MOLP5 cells. Kind of data set: Spermidine rescue of growth inhibition in MOLP5 cells. It counts as cell-based. The conditions noted are these: MOLP5 + 10 or 100 μM spermidine, FIG. 7A. Here is the method: MOLP5 cells with 100 μM spermidine (“MOLP5+100 μM Spd”), and MOLP5 cells with 10 μM spermidine (“MOLP5+10 μM Spd”), each.
Polyamines such as spermidine rescued the effects of BRD9647. FIG. 7B depicts the structure of spermidine. […] However, BRD9647 may be reactive with spermidine, as polyamines such as spermidine or spermine can directly react with BRD9647 via a benzoylation reaction (FIG. 7C) to form benzoylated polyamine products (FIG. 8 and FIG. 9).

For data set [5], the system named is MOLP5 cells. Kind of data set: Gene expression profiling of treated MOLP5 cells (microarray, GSEA). It counts as cell-based. The note with it: 10 μM, 6 hours. On the procedure:
Gene-expression analysis identified endoplasmic reticulum (ER) stress as an effect of BRD9647 in BRD9647-sensitive cells. […] For this experiment, MOLP5 cells were exposed to DMSO or 10 μM BRD9647 for 6 hours then subject to total RNA extraction using the TRIzol reagent (Thermo-Fisher). RNA was then hybridized to the Affymetrix U133 2.0 Plus oligonucleotide microarray (Affymetrix) and relative transcripts quantified following the manufacturer's protocol. Differential gene expression analysis was conducted using the Comparative Marker Selection module of GenePattern software (www.broadinstitute.org/genepattern). […] As show in FIG. 2C, Connectivity Map (CMap) analysis was conducted (www.broadinstitute.org/cmap) to compare a gene expression profile of […] with known gene expression profiles of over 5000 compounds to identify potential drugs showing a similar mechanism of action. Protein synthesis inhibitors of interest identified by the analysis are shown in boxes (FIG. 2C).

The test system of data set [6] is benzoylated lysines on proteins. Kind of data set: Immunoblot for benzoylated lysines (Kbz antibody) in treated cells. It counts as cell-based. The note with it: versus DMSO controls, FIG. 15. A general note: In western blotting, separated proteins are transferred to a membrane and probed.
Data set [7] has as its system MOLP5 cells. Kind of data set: Growth inhibition of MOLP5 cells by BRD9647 analogs. It counts as cell-based. The note with it: FIG. 1E; for growth inhibition in MOLP5 cells compared with other analogs: various concentrations. An excerpt: BRD9647 was identified in a phenotypic screening of multiple myeloma cells as a growth inhibitor of certain stroma-dependent myeloma cells. […] FIG. 1B is a plot showing viability of multiple myeloma cell lines (primary multiple myeloma (primary MM) cells (with stroma), MOLP5 (with stroma), and MM1S (with stroma)) treated with various concentrations of BRD9647. For these experiments GFP-labeled MOLP5 and MM1S cells were co-cultured with unlabeled primary human bone marrow stromal cells in 384-well plates and exposed to increasing concentrations of BRD9647 for 3 days. At the end of this period, wells were imaged in the GFP channel with the IXMicro automated high-throughput microscope (Molecular Devices), remaining GFP positive cells were quantified using the MetaXpress software (Molecular Devices) and expressed as percentages of DMSO (vehicle) controls. Unlabeled primary MM cells were similar treated with BRD9647 but were stained with the calcein-acetoxymethyl ester dye at the end of the treatment period. The dye fluoresces green inside viable cells that contain esterase enzymes. Viable cells were imaged and quantified similar to GFP-positive myeloma cell-lines using size, shape and staining intensity to distinguish primary MM from stromal cells. FIG. 1C depicts images showing the viability of primary MM and MOLP5 myeloma cell lines that received BRD9647 treatment in the presence and absence of stromal co-culture. […] Viable cells in these experiments after 3 days of compound exposure were measured using the Cell Titer Glo reagent (Promega).
Fluoro-benzoyl analogs of BRD9647 were synthesized and used to study the structure-function relationship between BRD9647 and each compound's ability to inhibit growth in MOLP5 cells. […] The BRD9647 analogs measured were either mono-fluorinated at the para (FIG. 1F), meta (FIG. 1G), or ortho (FIG. 1H) positions of the benzoyl ring, or tri-fluorinated at both meta positions and one ortho position of the ring (FIG. 1I). […]

Data set [8] deals with purified proteins (recombinant proteins, histones). Kind of data set: Incubation of labeled compound with purified proteins (SDS-PAGE autoradiography, mass spectrometry). It counts as biochemical. The note with it: FIG. 12, 13.
The test system of another data set is BRD9647-sensitive cells. Nature of the data set: Tracing of radiolabeled compound in cell extracts (TRIzol, TLC, protein extract). It counts as cell-based. The note with it: TRIzol or protein extract of treated cells, FIG. 10, 14. Here is the method: FIG. 10 is a diagram showing results of a tracing experiment with a TRIzol treated extract of cells treated with 10 μM ^14C-BRD9647 for six hours.
In FIG. 14, the workflow and results of a ^14C-BRD9647 tracing experiment with protein extract from cells treated with ^14C-BRD9647 are shown.

Entries after “also recorded” stand apart in the source; their conditions may differ.

Regarding `COc1ccc(N(C(=O)c2ccccc2)S(=O)(=O)c2cc(OC)ccc2OC)cc1` [BRD9647], the “toxicity to myeloma cells with and without stromal co-culture” value in data set [1] was “selectively toxic to stroma-dependent myeloma cells”. In addition, the “viability of cell line panel” value in [2] is on record as “inhibited stroma-dependent multiple myeloma (MM) cells, but not most cell lines”. Besides, in data set [3], the “sensitivity of MOLP5 cells expressing wild-type AZIN1” value is recorded as “wild-type AZIN1 expression in MOLP5 cells conferred resistance to BRD9647”. For the same compound, in the data set on MOLP5 cells [4], the “growth inhibition in presence of excess spermidine” value is listed as “excess spermidine rescued BRD9647 growth inhibition”. Further, the “gene expression signature of treated cells” value with MOLP5 cells [5] is recorded as “under ER stress or amino acid deprivation”. In addition, in data set [6], the “benzoylated lysines in treated cells” value is “an increase in benzoylated lysines”.

Consider `COc1ccc(N(C(=O)c2ccc(F)cc2)S(=O)(=O)c2cc(OC)ccc2OC)cc1` [Compound 1], for which the “growth inhibitory activity in MOLP5 cells compared with BRD9647” value with MOLP5 cells [7] (FIG. 3) is “similar, if not increased efficacy to BRD9647”. In addition, in the data set with MOLP5 cells [7], the “growth inhibition in MOLP5 cells compared with other analogs” value is reported as “increased growth inhibition at each concentration of active over m-fluorobenzoyl (zb-179-2) or o-fluorobenzoyl analogs (zb-16-14)”.

Regarding `COc1ccc(N(C(=O)c2cc(F)cc(F)c2F)S(=O)(=O)c2cc(OC)ccc2OC)cc1` [Compound 4], the “growth inhibition in MOLP5 cells compared with other analogs” value with MOLP5 cells [7] is “all mono substituted analogs appear to inhibit growth substantially more than the tri-fluorinated analog”.

For the compound `COc1ccc(N(C(=O)c2ccccc2)S(=O)(=O)c2cc(OC)ccc2OC)cc1` [^13C-BRD9647], the “covalent binding to purified proteins” value in [8] is on record as “identify labeled lysines”.

For the compound `COc1ccc(N(C(=O)c2ccccc2)S(=O)(=O)c2cc(OC)ccc2OC)cc1` [^14C-BRD9647], the “protein binding in treated cells” value in the data set on BRD9647-sensitive cells is “suggest protein binding or modification of proteins; also recorded: tight protein binding at ˜15 kD molecular weight”. Moreover, the “covalent binding to purified proteins” value in [8] is listed as “covalent binding of ^14C-BRD9647 with purified proteins was possible”.

(Values after patent US10851051B2, “Compositions and methods for treating multiple myeloma” (THE BROAD INSTITUTE, INC., priority 2015, dated 2020).)
